We go through 14 compounds from publication PMC8700061, “Fragment-Sized and Bidentate (Immuno)Proteasome Inhibitors Derived from Cysteine and Threonine Targeting Warheads” (Cells, 2021).

Structures are written as SMILES. Bounds are passed on as bounds.

What all share (assay type): biochemical
For one test, the target named is T1, hBChE (Homo sapiens, UniProt P06276).
T1 construct: gift of Xavier Brazzolotto, Florian Nachon and José Dias (IRBA, Brétigny-sur-Orge, France)
In words: Cholinesterase assay (Ellman), hBChE. To be noted: 30 min pre-incubation, read-out: Residual activity [%] ± SD, hBChE. The method, then:
The activity of the compounds against ChEs, namely hAChE and hBChE, was determined by the Ellman method. 5,5′-Dithiobis-2-nitrobenzoic acid (Ellman’s reagent; DTNB), butyrylthiocholine iodide, and acetylthiocholine iodides were from Sigma-Aldrich. Recombinant hAChE and hBChE were kindly provided by Xavier Brazzolotto, Florian Nachon, and José Dias (IRBA, Brétigny-sur-Orge, France). Reactions were performed in a final volume of 300 µL of 0.1 M phosphate-buffered solution, pH = 8.0, containing 370 µM DTNB, 500 μM butyrylthiocholine/acetylthiocholine iodide, and approximately 1 nM or 50–100 pM hBChE or hAChE, respectively. The reactions were started by the addition of the substrate after 30-min pre-incubation at room temperature. The final organic solvent (DMSO) content was always 1%. The formation of the yellow 5-thio-2-nitrobenzoate anion was monitored for 2 min at 412 nm, using a 96-well microplate reader (Synergy HT, BioTek Instruments, Inc., Santa Clara, CA, USA). The initial velocities in the presence (vi) and absence (vo) of the test compounds were calculated. Inhibitory potencies were expressed as residual activities (RA), according to the equation RA = (vi − b)/(vo − b), where b is the blank value.
(In Ellman's method for cholinesterases, released thiocholine reacts with DTNB.)

Another test deals with T2, hMAO-A (Homo sapiens, UniProt P21397).
T2 construct: purchased Sigma Aldrich; host or cells: BTI-TN-5B1-4 insect cells
T2 sequence (P21397 1-527): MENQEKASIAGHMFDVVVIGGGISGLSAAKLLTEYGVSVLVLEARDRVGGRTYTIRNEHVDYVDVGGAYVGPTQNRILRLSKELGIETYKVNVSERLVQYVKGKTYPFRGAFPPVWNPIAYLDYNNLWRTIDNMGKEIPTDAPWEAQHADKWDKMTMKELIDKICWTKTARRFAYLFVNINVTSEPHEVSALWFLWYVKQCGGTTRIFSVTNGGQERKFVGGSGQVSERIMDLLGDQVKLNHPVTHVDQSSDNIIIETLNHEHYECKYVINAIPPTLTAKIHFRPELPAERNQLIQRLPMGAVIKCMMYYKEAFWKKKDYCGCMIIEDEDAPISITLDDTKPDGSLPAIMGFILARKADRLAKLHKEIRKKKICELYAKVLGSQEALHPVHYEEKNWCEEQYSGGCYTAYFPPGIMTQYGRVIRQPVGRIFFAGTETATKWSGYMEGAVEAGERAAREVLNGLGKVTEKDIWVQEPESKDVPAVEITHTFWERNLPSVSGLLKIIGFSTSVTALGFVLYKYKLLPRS
In words: Monoamine oxidase assay, hMAO-A. Particulars: 30 min pre-incubation, read-out: Residual activity [%] ± SD, hMAO-A. The method, then:
The effects of the test compounds on hMAO were investigated using fluorimetric assay. Recombinant hMAO-A and hMAO-B, expressed in BTI-TN-5B1-4 insect cells, horseradish peroxidase type II and p-tyramine hydrochloride were purchased from Sigma Aldrich. Amplex Red was synthesized as previously described.
Briefly, 50 mM sodium phosphate buffer (pH = 7.4, 0.05 vol.% Triton X-114) containing the compounds or the reference inhibitors and hMAO were incubated at 37 °C for 30 min. The reaction was started by adding Amplex Red (final concentration, 250 µM), horseradish peroxidase (final activity, 1 U/mL), and p-tyramine (final concentration, 1 mM). The increase in fluorescence (λex = 530 nm, λem = 590 nm) was monitored for 30 min at 37 °C. DMSO at a concentration of 1.5% (v/v) was used for the control experiments. For the determination of blank (b), the enzyme was replaced by phosphate-buffered solution. Each measurement was performed in duplicate. Inhibitory potencies were expressed as residual activities (RA), as described under the Cholinesterase assay section.

A further test addresses T3, human caspase-1 (Homo sapiens, UniProt P29466).
T3 construct: purchased Sigma Aldrich, St. Louis, MO, USA C5482; host or cells: E. coli
T3 sequence (P29466 120-297 limits assumed): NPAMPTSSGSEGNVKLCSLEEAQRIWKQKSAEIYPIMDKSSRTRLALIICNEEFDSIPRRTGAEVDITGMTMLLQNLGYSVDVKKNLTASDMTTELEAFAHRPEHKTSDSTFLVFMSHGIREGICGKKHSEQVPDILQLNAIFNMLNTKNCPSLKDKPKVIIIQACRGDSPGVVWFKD
T3 sequence (P29466 317-404 limits assumed): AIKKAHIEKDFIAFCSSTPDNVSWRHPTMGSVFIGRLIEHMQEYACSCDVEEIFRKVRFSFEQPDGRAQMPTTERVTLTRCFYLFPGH
The experiment in a line: Caspase-1 assay, Ac-YVAD-AMC. To be noted: 30 min pre-incubation, read-out: Residual activity [%] ± SD, Caspase-1. The procedure: The inhibitory activity of the compounds against caspase-1 was investigated by fluorimetric assay using Ac-YVAD-AMC (SCP0069-5 mg, Sigma Aldrich, St. Louis, MO, USA) as a substrate. Recombinant human caspase-1 (expressed in E. coli, C5482, batch: SLBX3303, Sigma Aldrich, St. Louis, MO, USA) was diluted with 1 mL of assay buffer (50 mM HEPES pH 7.4, 100 mM NaCl, 1 mM EDTA, 10% (v/v) glycerol, 0.1% CHAPS, 1 mM DTT), divided into 50 µL aliquots and stored at −80 °C.
Briefly, compounds were incubated at a concentration of 100 µM (or 1% (v/v) DMSO as a control) with caspase-1 (1:5 dilution of caspase-1 stock solution) in assay buffer without DTT (to exclude reaction of compounds with DTT) in a 384-well microplate at room temperature for 30 min. The reaction was started by adding the substrate Ac-YVAD-AMC (final concentration: 20 µM) and monitored at λex = 360/40 and λem = 460/40 (Synergy HT, BioTek Instruments, Inc., Santa Clara, CA, USA) for 1 h. The initial linear ranges were used to calculate the velocity and determine RAs. Z-Val-Ala-DL-Asp-fluoromethylketone (N-1510, Bachem, Bubendorf, Switzerland) was used as a positive control.

T1 sequence (P06276 29-602): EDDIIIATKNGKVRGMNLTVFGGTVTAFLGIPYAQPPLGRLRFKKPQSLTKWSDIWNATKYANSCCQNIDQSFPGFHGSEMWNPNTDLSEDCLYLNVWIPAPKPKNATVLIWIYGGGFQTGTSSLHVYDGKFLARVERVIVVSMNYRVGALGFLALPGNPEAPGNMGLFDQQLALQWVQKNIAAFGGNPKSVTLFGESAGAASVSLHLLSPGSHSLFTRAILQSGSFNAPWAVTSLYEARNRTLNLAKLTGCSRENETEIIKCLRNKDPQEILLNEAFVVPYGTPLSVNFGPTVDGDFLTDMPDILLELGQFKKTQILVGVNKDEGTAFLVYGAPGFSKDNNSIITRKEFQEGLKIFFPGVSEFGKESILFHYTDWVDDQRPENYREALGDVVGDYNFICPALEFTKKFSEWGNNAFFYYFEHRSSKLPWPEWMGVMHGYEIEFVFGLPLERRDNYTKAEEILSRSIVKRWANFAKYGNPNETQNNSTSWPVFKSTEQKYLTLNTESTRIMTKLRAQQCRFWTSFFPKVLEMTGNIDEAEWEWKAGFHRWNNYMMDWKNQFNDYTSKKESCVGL

Consider `COc1cccc2oc(C#N)nc12` [Compound 6], for which the remaining activity at 100 µM at hBChE amounted to 36 ± 1%; at hMAO-A, 27%.
Regarding `N#Cc1nc2c(O)cccc2o1` [Compound 10], the figures for the remaining activity at 100 µM on hBChE, on hMAO-A and at human caspase-1 were over 50%, 38 ± 2% and 9 ± 3%, respectively.
For `N#Cc1nc2cc(O)ccc2o1` [Compound 11] the same measures were over 50%, 26% and 0%.
For `N#Cc1nc2cccc(O)c2o1` [Compound 13] the same measures were over 50%, 48 ± 1% and 5 ± 1%.
For `CC(=O)Oc1cccc2oc(C#N)nc12` [Compound 14] the same measures were over 50%, 34% and 49 ± 5%.
Regarding `CC(=O)Oc1ccc2oc(C#N)nc2c1` [Compound 15], the remaining activity at 100 µM is over 50% on hBChE, 16% on hMAO-A and 12 ± 2% at human caspase-1.
For `C=Cc1nc(CC(=O)N[C@@H](CC(C)C)B2O[C@@H]3C[C@@H]4C[C@@H](C4(C)C)[C@]3(C)O2)cs1` [Compound 28] the same measures were 27 ± 3%, 42% and over 50%.
As to `CC(C)C[C@H](NC(=O)CCn1c(C#N)nc2ccccc21)B1O[C@@H]2C[C@@H]3C[C@@H](C3(C)C)[C@]2(C)O1` [Compound 30], the remaining activity at 100 µM at hBChE, at hMAO-A and on human caspase-1 was over 50% each time.
Consider `CC(C)C[C@H](NC(=O)CCCn1c(C#N)nc2ccccc21)B1O[C@@H]2C[C@@H]3C[C@@H](C3(C)C)[C@]2(C)O1` [Compound 31], for which the remaining activity at 100 µM on hBChE was over 50%; on hMAO-A it was 24%; at human caspase-1, over 50%.
Consider `CC(C)C[C@H](NC(=O)CCn1c(C#N)nc2ccccc21)B(O)O` [Compound 34], for which the remaining activity at 100 µM on hBChE, on hMAO-A and at human caspase-1 was over 50% each time.
For the compound `CC(C)C[C@H](NC(=O)CCCn1c(C#N)nc2ccccc21)B(O)O` [Compound 35], the remaining activity at 100 µM at hBChE, at hMAO-A and on human caspase-1 was over 50% in each case.
For `CC(C)C[C@H](NC(=O)CCn1c(C#N)nc2cccc(Cl)c21)B1O[C@@H]2C[C@@H]3C[C@@H](C3(C)C)[C@]2(C)O1` [Compound 38], the remaining activity at 100 µM on hBChE is over 50%; on hMAO-A, 24 ± 1%; at human caspase-1, over 50%.
Take `CC(C)C[C@H](NC(=O)Cc1ccc2oc(C#N)nc2c1)B1O[C@@H]2C[C@@H]3C[C@@H](C3(C)C)[C@]2(C)O1` [Compound 39]: the figures for the remaining activity at 100 µM on hBChE, on hMAO-A and at human caspase-1 were 45 ± 1%, 42% and over 50%, respectively.
For `CC(C)C[C@H](NC(=O)Cc1ccc2oc(C#N)nc2c1)B(O)O` [Compound 40] the same measures were 33 ± 1%, 36% and over 50%.
